# Measured values taken from patent publication US20120258980A1, “Antibacterial Agent for Drug-Resistant Bacteria, Method for Screening for Same, and Use of Same” (priority 2009, published 2012).
# Read-outs that look alike come from different tables or passages of the source.
# Experiments:
# [1] = system: methicillin-susceptible S. aureus (MSSA), MRSA and mutants thereof; experiment: MIC measurement, Test Example 3 (MSSA, MRSA and sequential gyrA/grlA quinolone-resistant mutants); type: cell-based, Staphylococcus aureus; conditions: Staphylococcus aureus
# In short: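 Broth microdilution in cation-adjusted Mueller Hinton broth: inoculum from overnight TSB cultures set to A578 0.3, then 500-fold diluted and added 1:1 to serial compound concentrations.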
# [2] = system: MRSA, CA-MRSA and MSSA of Staphylococcus aureus; experiment: MIC measurement, Test Example 4 (MRSA, CA-MRSA and MSSA strains); type: cell-based; conditions: Staphylococcus aureus
# In short: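 S. aureus strains (FDA209P control) grown overnight in TSB at 37° C, resuspended in CAMHB, adjusted to A578 0.3 and diluted 500-fold. Equal volume added to CAMHB with serial compound concentrations, incubated statically overnight at 37° C. MIC read visually as lowest concentration without turbidity.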
# [3] = system: VISA clinical isolates of MRSA (VI-MRSA) and of MSSA (VI-MSSA); experiment: microbe, parasite or virus in culture; type: cell-based, Staphylococcus aureus
# In short: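 Strains were grown overnight at 37° C in TSB, adjusted in CAMHB to 0.3 absorbance at 578 nm and diluted 500-fold before equal-volume addition to compound dilutions.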
# [4] = system: Enterococcus faecalis; experiment: MIC measurement, Test Example 6 (enterococcus); type: cell-based; conditions: for MIC: Enterococcus faecalis, read-out: MIC
# In short: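 Broth microdilution in cation-adjusted Mueller Hinton: inoculum from overnight TSB cultures adjusted to absorbance 0.3 at 578 nm and diluted 500×. Compounds at various concentrations; static 37° C overnight incubation. MIC = lowest concentration without visible turbidity; strains include two vancomycin-resistant NCTC isolates.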
compound,measurement,setting,value
"Cc1cc(=O)n2c3c(c4c(cc13)c(CO)cc(=O)n4C)OC2 [NM, nybomycin]",MIC,"[1]; FDA209P / MRSA / MSSA, FDA209P (MSSA), control, read-out: MIC",> 64 µg/mL
same,MIC,"[1]; MR5867 (MRSA), clinical isolate parent strain, no mutation",> 64 µg/mL
same,MIC,"[1]; MR5867-1, first-step quinolone-resistant mutant, grlA E84K",> 64 µg/mL
same,MIC,"[1]; MS5935 (MSSA), clinical isolate parent strain, no mutation, read-out: MIC",> 64 µg/mL
same,MIC,"[1]; MS5935-1, first-step quinolone-resistant mutant, grlA S80F",> 64 µg/mL
same,MIC,"[1]; MS5952 (MSSA), clinical isolate parent strain, no mutation, read-out: MIC",> 64 µg/mL
same,MIC,"[1]; MS5952-1, first-step quinolone-resistant mutant, grlA S80Y",> 64 µg/mL
same,MIC,"[2]; ATCC 29213 / MRSA / MSSA, ATCC 29213, MSSA",64 µg/mL
same,MIC,"[2]; COL, MRSA",> 64 µg/mL
same,MIC,"[2]; FDA209P / MRSA / MSSA, FDA209P, MSSA",64 µg/mL
same,MIC,"[2]; ISA12-1, MRSA",> 64 µg/mL
same,MIC,"[2]; ISA12-2, MRSA",> 64 µg/mL
same,MIC,"[2]; ISA35-1, MRSA",> 64 µg/mL
same,MIC,"[2]; ISA37-1, MSSA",> 64 µg/mL
same,MIC,"[2]; ISA49-1, MSSA",> 64 µg/mL
same,MIC,"[2]; ISA51-1, MSSA",> 64 µg/mL
same,MIC,"[2]; ISA56-3, MRSA",> 64 µg/mL
same,MIC,"[2]; ISA58-1, MRSA",16 µg/mL
same,MIC,"[2]; ISA62-1, MRSA",> 64 µg/mL
same,MIC,"[2]; ISA73-1, MSSA",> 64 µg/mL
same,MIC,"[2]; KBSA32, MRSA",> 64 µg/mL
same,MIC,"[2]; KBSA34, MRSA",> 64 µg/mL
same,MIC,"[2]; KBSA72, MRSA",≤ 0.063 µg/mL
same,MIC,"[2]; KBSA96, MRSA",0.125 µg/mL
same,MIC,"[2]; KBSA171, MRSA",0.25 µg/mL
same,MIC,"[2]; KSA24, MRSA",0.5 µg/mL
same,MIC,"[2]; KSA31, MRSA",1 µg/mL
same,MIC,"[2]; KSA36, MRSA",≤ 0.063 µg/mL
same,MIC,"[2]; MRSA / MSSA / NCTC 8325, NCTC 8325, MSSA",> 64 µg/mL
same,MIC,"[2]; MRSA / MSSA / USA300, USA300 FPR3757, CA-MRSA",0.25 µg/mL
same,MIC,"[2]; MW2, CA-MRSA",64 µg/mL
same,MIC,"[2]; N315, MRSA",64 µg/mL
same,MIC,"[3]; Staphylococcus aureus, 99/3700-W, VI-MRSA, The United Kingdom",0.25 µg/mL
same,MIC,"[3]; Staphylococcus aureus, 99/3759-V, VI-MRSA, The United Kingdom",0.5 µg/mL
same,MIC,"[3]; Staphylococcus aureus, 28160, VI-MRSA, South African Republic",0.5 µg/mL
same,MIC,"[3]; Staphylococcus aureus, 98141, VI-MRSA, France",0.5 µg/mL
same,MIC,"[3]; Staphylococcus aureus, A7 (JCSC4842), VI-MRSA, Taiwan",0.125 µg/mL
same,MIC,"[3]; Staphylococcus aureus, AMC11094, VI-MRSA, Korea",1 µg/mL
same,MIC,"[3]; Staphylococcus aureus, B7 (JCSC4852), VI-MRSA, Taiwan",≤ 0.063 µg/mL
same,MIC,"[3]; Staphylococcus aureus, BR1, VI-MRSA, Brazil",0.5 µg/mL
same,MIC,"[3]; Staphylococcus aureus, BR2, VI-MRSA, Brazil",0.25 µg/mL
same,MIC,"[3]; Staphylococcus aureus, BR3, VI-MRSA, Brazil",0.25 µg/mL
same,MIC,"[3]; Staphylococcus aureus, BR4, VI-MRSA, Brazil",0.25 µg/mL
same,MIC,"[3]; Staphylococcus aureus, BR5, VI-MRSA, Brazil",0.25 µg/mL
same,MIC,"[3]; Staphylococcus aureus, HIP06297, VI-MRSA, America",0.5 µg/mL
same,MIC,"[3]; Staphylococcus aureus, HIP06854, VI-MRSA, America",1 µg/mL
same,MIC,"[3]; Staphylococcus aureus, HIP07920, VI-MRSA, America",0.25 µg/mL
same,MIC,"[3]; Staphylococcus aureus, HIP07930, VI-MRSA, America",1 µg/mL
same,MIC,"[3]; Staphylococcus aureus, HIP08926, VI-MRSA, America",0.25 µg/mL
same,MIC,"[3]; Staphylococcus aureus, HIP09143, VI-MRSA, America",0.25 µg/mL
same,MIC,"[3]; Staphylococcus aureus, HIP09313, VI-MRSA, America",0.5 µg/mL
same,MIC,"[3]; Staphylococcus aureus, HIP09433, VI-MRSA, America",1 µg/mL
same,MIC,"[3]; Staphylococcus aureus, HIP09662, VI-MRSA, America",1 µg/mL
same,MIC,"[3]; Staphylococcus aureus, HIP09735, VI-MRSA, America",0.25 µg/mL
same,MIC,"[3]; Staphylococcus aureus, HIP09737, VI-MSSA, America",1 µg/mL
same,MIC,"[3]; Staphylococcus aureus, HIP09740, VI-MRSA, America",0.25 µg/mL
same,MIC,"[3]; Staphylococcus aureus, HIP10267, VI-MRSA, America",2 µg/mL
same,MIC,"[3]; Staphylococcus aureus, HIP10540, VI-MRSA, America",0.25 µg/mL
same,MIC,"[3]; Staphylococcus aureus, HIP12864, VI-MRSA, America",0.5 µg/mL
same,MIC,"[3]; Staphylococcus aureus, HIP13036, VI-MRSA, America",0.5 µg/mL
same,MIC,"[3]; Staphylococcus aureus, HIP13057, VI-MRSA, America",0.25 µg/mL
same,MIC,"[3]; Staphylococcus aureus, IL (HIP7737), VI-MRSA, America",1 µg/mL
same,MIC,"[3]; Staphylococcus aureus, JCSC7193, VI-MRSA, Thailand",0.33 µg/mL
same,MIC,"[3]; Staphylococcus aureus, JCSC7195, VI-MRSA, Thailand",0.33 µg/mL
same,MIC,"[3]; Staphylococcus aureus, JCSC7203, VI-MRSA, Thailand",0.16 µg/mL
same,MIC,"[3]; Staphylococcus aureus, LIM2, VI-MRSA, France",0.5 µg/mL
same,MIC,"[3]; Staphylococcus aureus, LY-1999-01, VI-MSSA, Oman",0.125 µg/mL
same,MIC,"[3]; Staphylococcus aureus, LY-1999-03, VI-MRSA, Oman",≤ 0.063 µg/mL
same,MIC,"[3]; Staphylococcus aureus, MI (HIP5827), VI-MRSA, America",0.5 µg/mL
same,MIC,"[3]; Staphylococcus aureus, MRSA / MSSA / NRS 76 / VISA, NRS76, VI-MSSA, America",0.25 µg/mL
same,MIC,"[3]; Staphylococcus aureus, MRSA / MSSA / NRS 79 / VISA, NRS79, VI-MRSA, America",1 µg/mL
same,MIC,"[3]; Staphylococcus aureus, MRSA / MSSA / NRS 118 / VISA, NRS118, VI-MRSA, America",0.25 µg/mL
same,MIC,"[3]; Staphylococcus aureus, MRSA / MSSA / NRS 126 / VISA, NRS126, VI-MRSA, America",0.5 µg/mL
same,MIC,"[3]; Staphylococcus aureus, Mu3, VI-MRSA, Japan",0.5 µg/mL
same,MIC,"[3]; Staphylococcus aureus, Mu50, VI-MRSA, Japan",0.25 µg/mL
same,MIC,"[3]; Staphylococcus aureus, NJ (HIP5836), VI-MRSA, America",0.5 µg/mL
same,MIC,"[3]; Staphylococcus aureus, P1V44, VI-MSSA, Belgium",1 µg/mL
same,MIC,"[3]; Staphylococcus aureus, PC, VI-MRSA, America",1 µg/mL
same,MIC,"[3]; Staphylococcus aureus, SA MER-S6, VI-MSSA, France",64 µg/mL
same,MIC,"[3]; Staphylococcus aureus, SA MER-S12, VI-MSSA, France",64 µg/mL
same,MIC,"[3]; Staphylococcus aureus, SA MER-S20, VI-MSSA, France",> 64 µg/mL
same,MIC,"[4]; E. faecalis 36-15672, quinolone-susceptible enterococci",> 64 µg/mL
same,MIC,"[4]; E. faecalis 36-15673, quinolone-susceptible enterococci",> 64 µg/mL
same,MIC,"[4]; E. faecalis 36-15678, quinolone-susceptible enterococci",> 64 µg/mL
same,MIC,"[4]; E. faecalis 36-15686, quinolone-resistant enterococci",0.5 µg/mL
same,MIC,"[4]; E. faecalis 36-15688, quinolone-susceptible enterococci",> 64 µg/mL
same,MIC,"[4]; E. faecalis 36-15694, quinolone-resistant enterococci",1 µg/mL
same,MIC,"[4]; E. faecalis 36-15696, quinolone-susceptible enterococci",> 64 µg/mL
same,MIC,"[4]; E. faecalis 36-15703, quinolone-resistant enterococci",2 µg/mL
same,MIC,"[4]; E. faecalis 36-15716, quinolone-resistant enterococci",1 µg/mL
same,MIC,"[4]; E. faecalis 36-15718, quinolone-susceptible enterococci",32 µg/mL
same,MIC,"[4]; E. faecalis 36-15720, quinolone-susceptible enterococci",> 64 µg/mL
same,MIC,"[4]; E. faecalis 36-15722, quinolone-resistant enterococci",1 µg/mL
same,MIC,"[4]; E. faecalis 36-15726, quinolone-resistant enterococci",0.5 µg/mL
same,MIC,"[4]; E. faecalis 36-15730, quinolone-susceptible enterococci",> 64 µg/mL
same,MIC,"[4]; E. faecalis 36-15736, quinolone-susceptible enterococci",> 64 µg/mL
same,MIC,"[4]; E. faecalis 36-15741, quinolone-susceptible enterococci",> 64 µg/mL
same,MIC,"[4]; NCTC 12201 / VRE, E. faecalis NCTC12201, vancomycin-resistant (VRE), quinolone-susceptible enterococci",8 µg/mL
same,MIC,"[4]; NCTC 12203 / VRE, E. faecalis NCTC12203, vancomycin-resistant (VRE), quinolone-susceptible enterococci",16 µg/mL
same,"antibacterial activity, comparison between NM and DNM",[4]; against enterococci,higher antibacterial activity against enterococci than DNM
